{"source": "paper PMC7199283", "about": "(Antiviral research, 2020)", "origin": "cited, not measured here", "test_system": "HBV", "settings": "ref Hu et al., 2013"}
{"smiles": "CC(C)c1ccc(O)c(=O)c(O)c1", "note": "[β-thujaplicinol]", "values": [{"measurement": "accumulation of RNA:DNA heteroduplexes within HBV capsids", "value": "dose-dependent accumulation of RNA:DNA heteroduplexes"}]}
